{"source": "patent US11066395B2", "about": "“Dimethylaminoethanol salt of a GLP-1 receptor modulator” (RECEPTOS LLC, priority 2016, dated 2021)", "key": {"[1]": {"details": "counterion base; cited from earlier work"}, "[2]": {"assay": "pH solubility curve (buffers pH 1-pH 8, deionized water)", "type": "physicochemical", "description": "A range of buffers were made up (pH 1-pH 8) to understand the effect of pH on the measured solubility. In each case the pH is measured prior to isolation to ensure most accurate data. […] All solids were characterized by XRPD post solubility determination and shown all to be amorphous (FIG. 44), which is common when a solid is placed into aqueous conditions."}, "[3]": {"assay": "Stress testing of dimethylaminoethanol salt (40° C./75% RH and 80° C./ambient, 1 week), XRPD and HPLC", "type": "physicochemical", "description": "To better understand the physical and chemical stability of the dimethylaminoethanol salt, the salt was placed under stressed condition (40° C./75% RH and 80° C./Ambient) for 1 week. The solids were then removed and analyzed via both XRPD and HPLC to determine physical and chemical stability, respectively."}, "[4]": {"assay": "Hygroscopicity by DVS/GVS with XRPD post GVS", "type": "physicochemical", "excerpt": "To determine the hygroscopicity of the dimethylaminoethanol salt the sample was submitted for DVS (FIG. 39).\nThe thermal event likely corresponds to the melt of the crystalline material."}, "[5]": {"assay": "Hydration study: slurry in aqueous solvents containing 10% by volume of water, XRPD", "type": "physicochemical", "details": "acetone, acetonitrile or methanol/water 90/10 by volume", "description": "To understand the potential of forming hydrates the dimethylaminoethanol salt was slurried in a series of aqueous solvents, containing 10% by volume of water.\nWhen the solids were analyzed by XRPD post hydration study (FIG. 41), the majority of solids had been rendered amorphous. Only the acetone/water mixture had any signs of crystallinity, which corresponded to the input material. […] The generation of amorphous material could be due to the high affinity of the molecule (RP-101) with solvents and water."}, "[6]": {"assay": "Salt screen: storage of salts at 40° C./75% RH for 7 days, re-analysis by XRPD", "method": "These resultant suspensions were temperature cycled between ambient temperature (22° C.) and 40° C. in 4 hour cycles for 72 hours. Samples were analyzed by XRPD and any remaining solid was isolated by filtration using a centrifuge and tubes with a 0.45 m filter insert. Isolated solids were allowed to dry at ambient condition and analyzed by ^1H NMR."}, "[7]": {"assay": "Thermodynamic solubility testing in pH 6.8 phosphate buffer", "type": "physicochemical", "details": "for solubility at 24 h: phosphate buffer, pH 6.8, aqueous buffer, thermodynamic from solid", "description": "0.5 mL of that buffer is then added to 5-10 mg of each crystalline salt hit. The pH of the resultant slurries are measured after 10 minutes and, if needed, adjusted back to pH 6.8 using the individual buffer component. Samples were stirred at room temperature for 24 hours, filtered, and analyzed for concentration by HPLC."}}, "note": "Counter-ions that a name gives are not always drawn. Like-named read-outs stand apart in the source and are kept apart here. Marks after values point to notes of the source that are not given here."}
{"smiles": "C[N+](C)(C)CCO.[OH-]", "note": "[Choline hydroxide]", "values": [{"measurement": "LogP", "setting": "[1]", "result": "−3.70"}, {"measurement": "pKa 1", "setting": "[1]", "result": 11.00}]}
{"smiles": "NCCCC[C@H](N)C(=O)O", "note": "[L-Lysine]", "values": [{"measurement": "LogP", "setting": "[1]", "result": "−1.04"}, {"measurement": "pKa 3", "setting": "[1]", "result": "2.16*"}]}
{"smiles": "CNC[C@H](O)[C@@H](O)[C@H](O)[C@H](O)CO", "note": "[N-Methylglucamine, (2R,3R,4R,5S)-6-(methylamino)hexane-1,2,3,4,5-pentaol]", "values": [{"measurement": "LogP", "setting": "[1]", "result": "−3.37"}]}
{"smiles": "CCC1CCC(C2CC=C(c3cnc(-c4ccc(CC(NC(=O)c5ccc(C(C)(C)C)s5)C(=O)N5CC(C(=O)O)C5)cc4)nc3)CC2)CC1", "note": "(centres unmarked) [deanol-RP-101, 2-hydroxy-N,N-dimethylethanaminium 1-(2-(5-(tert-butyl)-thiophene-2-carboxamido)-3-(4-(5-(4′-ethyl-[1,1′-bi(cyclohexan)]-3-en-4-yl)-pyrimidin-2-yl)phenyl)propanoyl)azetidine-3-carboxylate salt]", "values": [{"measurement": "Solubility", "setting": "[2]; acidic conditions", "result": "low"}, {"measurement": "Solubility", "setting": "[2]; basic conditions", "result": "rises significantly"}, {"measurement": "Solubility", "setting": "[2]; deionized water", "result": "relatively high"}, {"measurement": "Crystalline form by XRPD post stability (physical stability)", "setting": "[3]; 40° C./75% RH", "result": "same crystalline form was present"}, {"measurement": "Crystallinity by XRPD post stability", "setting": "[3]; 40° C./75% RH", "result": "decrease in crystallinity"}, {"measurement": "Purity by HPLC post stress (chemical stability)", "setting": "[3]; 40° C./75% RH", "result": 97.3, "unit": "%"}, {"measurement": "Crystalline form by XRPD post stability (physical stability)", "setting": "[3]; 80° C./ambient", "result": "same crystalline form was present"}, {"measurement": "Purity by HPLC post stress (chemical stability)", "setting": "[3]; 80° C./ambient", "result": 96.8, "unit": "%"}, {"measurement": "Hygroscopicity (DVS/GVS)", "setting": "[4]", "result": "the process was reversible and did not indicate the conversion to a hydrate"}, {"measurement": "XRPD post GVS compared to input material", "setting": "[4]", "result": "no change seen"}, {"measurement": "Hydrate formation (XRPD post hydration study)", "setting": "[5]", "result": "no obvious hydrate"}]}
{"smiles": "CCC1CCC(C2CC=C(c3cnc(-c4ccc(CC(NC(=O)c5ccc(C(C)(C)C)s5)C(=O)N5CC(C(=O)O)C5)cc4)nc3)CC2)CC1", "note": "(centres unmarked) [meglumine-RP-101]", "values": [{"measurement": "Stability at 40° C./75% RH (XRPD)", "setting": "[6]; material obtained from 1,4-dioxane", "result": "Only small changes"}, {"measurement": "Stability at 40° C./75% RH (XRPD)", "setting": "[6]; material obtained from DCM", "result": "decrease in crystallinity"}, {"measurement": "Stability at 40° C./75% RH (XRPD)", "setting": "[6]; material obtained from MEK", "result": "Only small changes"}, {"measurement": "Solubility", "setting": "[7]; aqueous, pH 6.8 phosphate buffer, room temperature, 24 hours, HPLC, listed as Meglumine (DCM)", "result": 160, "unit": "µg/mL"}, {"measurement": "solubility at 24 h", "setting": "[7]; aqueous, pH 6.8 phosphate buffer, room temperature, 24 hours, HPLC, read-out: Solubility", "result": 303, "unit": "µg/mL"}, {"measurement": "solubility at 24 h", "setting": "[7]; material obtained from 1,4-dioxane, read-out: Solubility at pH 6.8", "result": 303, "unit": "µg/mL"}, {"measurement": "solubility at 24 h", "setting": "[7]; material obtained from DCM, read-out: Solubility at pH 6.8", "result": 160, "unit": "µg/mL"}]}
